Reference: patent US9617244B2, “Antibacterial quinoline derivatives” (JANSSEN PHARMACEUTICA NV, priority 2012, dated 2017)
Structures can show the parent of a compound that is named as a salt.

| melting point [°C] | SMILES |
| --- | --- |
| > 250 | Cc1cc(F)ccc1C1CC(O)(C(c2cccc(Cl)c2)c2cc3cc(S(C)(=O)=O)ccc3[nH]c2=O)CCN1 (stereo not drawn) (as salt: hydrochloride) [Compound 159] |
| > 250 | CSc1ccc2[nH]c(=O)c(C(c3cccc(Cl)c3)C3(O)CCNC(c4ccc(F)cc4C)C3)cc2c1 (stereo not drawn) (as salt: hydrochloride) [Compound 160] |
| > 250 | Cc1cc(F)ccc1C1CC(O)(C(c2ccccc2)c2cc3cc(Br)ccc3[nH]c2=O)CCN1 (stereo not drawn) (as salt: hydrochloride) [Compound 192] |
| > 250 | CS(=O)(=O)c1ccc2[nH]c(=O)c(C(c3ccc(Cl)cc3)C3(O)CCNC(Cc4ccc(F)c(F)c4)C3)cc2c1 (stereo not drawn) (as salt: hydrochloride) [Compound 212] |
| > 250 | Cc1cc(F)ccc1C1CC(O)(C(c2ccc(Cl)cc2)c2cc3cc(S(C)(=O)=O)ccc3[nH]c2=O)CCN1 (stereo not drawn) (as salt: hydrochloride) [Compound 220] |
| > 250 | O=c1[nH]c2ccc(Br)cc2cc1C(c1ccc(Cl)cc1)C1(O)CCNCC1Cc1cccc(F)c1 (stereo not drawn) (as salt: hydrochloride) [Compound 229] |
| > 250 | CSc1ccc2[nH]c(=O)c(C(c3ccc(Cl)cc3)C3(O)CCNC(c4ccccc4)C3)cc2c1 (stereo not drawn) (as salt: hydrochloride) [Compound 230] |
| > 250 | Cc1cc(F)ccc1C1CC(O)(C(c2ccccc2)c2cc3cc(-c4cccnc4)ccc3[nH]c2=O)CCN1 (stereo not drawn) (as salt: hydrochloride) [Compound 236] |
| > 250 | Cc1cc(F)ccc1C1CC(O)(C(c2ccccc2)c2cc3cc(S(C)(=O)=O)ccc3[nH]c2=O)CCN1 (stereo not drawn) (as salt: hydrochloride) [Compound 237] |
| > 250 | O=c1[nH]c2ccc(Cl)cc2cc1C(c1ccc(Cl)cc1)C1(O)CCNC(Cc2ccccc2)C1 (stereo not drawn) (as salt: hydrochloride) [Compound 239] |
| > 250 | O=c1[nH]c2ccc(Br)cc2cc1C(c1ccc(Cl)cc1)C1(O)CCNC(CC2CCCCC2)C1 (stereo not drawn) (as salt: hydrochloride) [Compound 254] |
| > 250 | CSc1ccc2[nH]c(=O)c(C(c3ccc(Cl)cc3)C3(O)CCNC(c4ccc(F)cc4C)C3)cc2c1 (stereo not drawn) (as salt: hydrochloride) [Compound 266] |
| > 250 | CSc1ccc2[nH]c(=O)c(C(c3ccc(Cl)cc3)C3(O)CCNC(Cc4ccc(F)cc4)C3)cc2c1 (stereo not drawn) (as salt: hydrochloride) [Compound 281] |
| 206 | CSc1ccc2[nH]c(=O)c(C(c3ccc(Cl)cc3)C3(O)CCNC(Cc4ccc(F)cc4)C3)cc2c1 (stereo not drawn) (as salt: hydrochloride) [Compound 282] |
| > 250 | CSc1ccc2[nH]c(=O)c(C(c3ccc(Cl)cc3)C3(O)CCNC(CC4CCCCC4)C3)cc2c1 (stereo not drawn) (as salt: hydrochloride) [Compound 295] |
| > 250 | Cc1cc(F)ccc1C1CC(O)(C(c2ccc(Cl)cc2)c2cc3cc(Cl)ccc3[nH]c2=O)CCN1 (stereo not drawn) (as salt: hydrochloride) [Compound 303] |
| 232 | CS(=O)(=O)c1ccc2[nH]c(=O)c(C(c3cccc(Cl)c3)C3(O)CCNC(Cc4ccc(F)cc4F)C3)cc2c1 (stereo not drawn) (as salt: hydrochloride) [Compound 307] |
| > 260 | CS(=O)(=O)c1ccc2[nH]c(=O)c(C(c3cccc(Cl)c3)C3(O)CCNC(Cc4ccc(F)cc4F)C3)cc2c1 (stereo not drawn) (as salt: hydrochloride) [Compound 308] |
| > 260 | CSc1ccc2[nH]c(=O)c(C(c3cccc(Cl)c3)C3(O)CCNC(Cc4ccc(F)cc4F)C3)cc2c1 (stereo not drawn) (as salt: hydrochloride) [Compound 309] |
| 126 | CSc1ccc2[nH]c(=O)c(C(c3cccc(Cl)c3)C3(O)CCNC(Cc4ccc(F)cc4F)C3)cc2c1 (stereo not drawn) (as salt: hydrochloride) [Compound 310] |
| 234 | O=c1[nH]c2ccc(Br)cc2cc1C(c1ccc(Cl)cc1)C1(O)CCNC(Cc2ccc(F)cc2F)C1 (stereo not drawn) (as salt: hydrochloride) [Compound 314] |
